Assays:
[1] = Plasma concentrations in the murine C. difficile toxin model (LC/MS); format: in vivo; details: mice, over four hours
Experimental: We monitored the plasma concentrations of Example 6a following the IR, PO and IP administrations in the murine C. difficile toxin model (Example 63). Plasma concentrations of Example 6a were determined with the use of high pressure liquid chromatography (HPLC) and mass spectrometry (MS) following the administration of Example 6a. Plasma concentration curve of Example 6a was plotted over four hours (FIG. 5). […] It is noted that reduction of the IL-1β and MPO levels as well as improved colon histopathology correlates with the plasma concentrations of Example 6a.
To determine plasma concentration of compounds, blood (˜200 μl) was drawn by retro-orbital bleed, and compound concentration was determined by liquid chromatography (LC)/mass spectrometry (MS)(AB Sciex API-3000 LC/MS/MS system).

C. difficile = format: in vivo, C57/BL6 mice; details: relapse model; for weight loss, days 8-9 after infection: PO, vancomycin 20 mg/kg once per day for five days
[2] = biological target: T1, recombinant glucosyltransferase domain of C. difficile Toxin B/TcdB (Clostridioides difficile, UniProt P18177); experiment: biochemical
T1 construct: 6-His (C); purchased R&D Systems 6246-GT
T1 sequence (P18177 1-543): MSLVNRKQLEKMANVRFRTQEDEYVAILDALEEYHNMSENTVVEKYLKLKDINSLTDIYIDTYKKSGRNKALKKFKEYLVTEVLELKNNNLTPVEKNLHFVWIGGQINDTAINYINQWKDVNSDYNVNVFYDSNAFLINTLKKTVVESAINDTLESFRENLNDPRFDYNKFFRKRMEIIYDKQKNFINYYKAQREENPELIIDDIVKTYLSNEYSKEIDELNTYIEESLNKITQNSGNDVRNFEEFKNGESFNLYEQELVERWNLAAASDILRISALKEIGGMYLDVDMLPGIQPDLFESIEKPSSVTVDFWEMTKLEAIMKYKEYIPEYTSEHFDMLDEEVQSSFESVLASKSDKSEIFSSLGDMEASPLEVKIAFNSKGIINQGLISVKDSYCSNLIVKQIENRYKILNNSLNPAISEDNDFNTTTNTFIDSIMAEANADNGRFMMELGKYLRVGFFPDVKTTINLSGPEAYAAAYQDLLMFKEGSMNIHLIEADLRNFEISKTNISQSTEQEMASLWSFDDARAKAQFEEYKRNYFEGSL

[3] = test system: C. difficile strain VPI 10463; experiment: Acute murine C. difficile infection model; format: in vivo, C57BL/6 mice; details: for weight loss, time course: acute infection, days after infection, 8 animals per group
Source text: In a hospital environment, C. difficile infection occurs when the patient receives an antibiotic treatment that disrupts the normal gut microflora and is exposed to C. difficile spores. The patient often fails to mount a protective immune response against the acute C. difficile infection. (Rupnik, Wilcox et al. 2009). To study the acute C. difficile infection, we established a murine C. difficile infection model. Details of the infection model are provided in the “Experimental Protocol” (below).
In brief, female C57BL/6 mice were administered the following antibiotics: colistin (0.042 units/mL), gentamicin (0.035 mg/mL), kanamycin (0.4 mg/mL), metronidazole (0.215 mg/mL) and vancomycin (0.045 mg/mL) in drinking water for 3 days. The administered antibiotics disrupted the normal gut microflora in mice. On the 4th day, mice received oral administration of 0.5 mL volume containing ˜100 spores produced from a virulent clinical C. difficile isolate (strain VPI 10463). In this acute murine C. difficile infection model, we observed a similar time course of infection when compared to that of clinical patients.
Using the developed murine C. difficile infection model (Example 67), we evaluated our test compounds for their efficacy in reducing weight loss and gut inflammation caused by the acute C. difficile infection. We tested the efficacy of Example 6a and Example 5ae and used eight (8) animals in each group.
We further tested the efficacy of the Example 6a, Example 5ae, Example 4cl, and Example 5al compounds by PO administration. Vancomycin was used as a positive control. Three (3) experiments were performed utilizing a total of five (5) to sixteen (16) animals in each group.
C. difficile strain VPI 10463 was grown for four (4) days in 10 ml of BHI in a Bactron anaerobic workstation (Shel Lab). The culture was centrifuged at 2,700 g for 10 minutes. The bacterial pellet was washed with 10 mL of PBS and the centrifugation was repeated. The pellet was then re-suspended in 10 mL of PBS, incubated at 56° C. for 10 minutes, and then was frozen at −20° C. until used. Titers of spore stocks were determined by serial dilution and plating onto BHI and with 1% taurocholate and counting of colonies after incubation for 24 hours at 37° C. using the GasPak EZ Anaerobe Pouch System.
We utilized an established C. difficile murine infection model (Chen, Katchar et al. 2008). To render them susceptible to infection, female C57BL/6 mice (˜10 weeks old and weighing ˜20 g) were administered the following antibiotics (Sigma Aldrich) in drinking water for 3 days (Days −6 to −3): colistin (0.042 units/mL), gentamicin (0.035 mg/mL), kanamycin (0.4 mg/mL), metronidazole (0.215 mg/mL) and vancomycin (0.045 mg/mL). Based upon an expected water consumption of 100 mL/kg/day, the approximate doses of these antibiotics will be as follows: colistin (4.2 units/kg/day), gentamicin (3.5 mg/kg/day), kanamycin (40 mg/kg/day), metronidazole (21.5 mg/kg/day) and vancomycin (4.5 mg/kg/day). The animals were provided with regular drinking water for two days (Day −2 and Day −1), and the next day (Day 0) they were administered clindamycin phosphate (1 mg/mL solution in PBS) at 10 mL/kg by intraperitoneal injection, for a final dose of 10 mg/kg body weight. The following day (Day 1), they were orally gavaged with ˜100 spores in a 0.5 ml volume.
Compounds were administered beginning ˜8 hours after infection, and the animals were dosed twice per day for two days (Days 2-3) with a total of four doses. Compounds were prepared as 5 mg/mL suspensions in 20% PEG-400, 0.4% carboxymethyl cellulose and 0.2% Tween 80 and administered at a dose of 10 mL/kg, for a final dose of 50 mg/kg body weight.
Animals were observed and weighed two (2) to (3) times daily. Animals that were obviously moribund or had lost >20% of their initial body weight were euthanized. Sub-groups of animals were euthanized four (4) hours after the final compound dose (52 hours after infection). […]

C. difficile strain 630 = format: in vivo, Golden Syrian hamsters

Compound	plasma concentration ([1]; IP administration, compared to IR)	plasma concentration ([1]; IR administration)	plasma concentration ([1]; PO administration, compared to IR)	mice that died/expired on Days 8-9 (C. difficile; 8 mice per group)	relapsing disease (C. difficile; 8 mice per group)	weight loss, days 8-9 after infection (C. difficile)	IC50 [2] [nM]	weight loss, time course [3]	mice euthanized due to body weight loss of >20% (C. difficile; Day 4, 8 mice per group)	survival until Day 10 (C. difficile strain 630; Example 5ae 50 mg/kg PO twice per day for 7 days) [%]	median survival time / protection from mortality (C. difficile strain 630; PO twice per day, Example 5ae 50 mg/kg 7 days, vancomycin 5 mg/kg 5 days)	toxin effect on colon length ([3]; PO, 52 hours after infection)
COc1ccc(NC(=O)c2ccc(CN3C(=O)c4ccc(Cl)cc4NC(=O)[C@H]3Cc3ccccn3)cc2F)nc1 [Example 6a, (R)-4-((8-Chloro-2,5-dioxo-3-(pyridin-2-ylmethyl)-2,3-dihydro-1H-benzo[e][1,4]diazepin-4(5H)-yl)methyl)-2-fluoro-N-(5-methoxypyridin-2-yl)benzamide]	significantly higher plasma concentrations	low plasma concentrations	significantly higher plasma concentrations	none	prevention of relapsing disease	significantly reduced weight loss 8.0, 8.5 and 9.0 days after infection	< 100	significantly reduced weight loss 2.25, 2.5 and 3.0 days after infection	–	–	–	–
O=C(Nc1ccc(C(F)(F)F)cn1)c1ccc(CN2C(=O)c3ccc(Cl)cc3NC(=O)[C@H]2Cc2ccccn2)cc1Cl [Example 5ae, (R)-2-Chloro-4-((8-chloro-2,5-dioxo-3-(pyridin-2-ylmethyl)-2,3-dihydro-1H-benzo[e][1,4]diazepin-4(5H)-yl)methyl)-N-(5-(trifluoromethyl)pyridin-2-yl)benzamide]	–	–	–	none	prevention of relapsing disease	significantly reduced weight loss 8.0, 8.5 and 9.0 days after infection	< 100	significantly reduced weight loss 2.5 and 3.0 days after infection	1	70	significantly improved the median survival time	significantly reduced the toxin effect on colon length
